Assay results: patent publication US10844044B2 (Vanderbilt University, priority 2018, dated 2020)
Read-outs that look alike come from different tables or passages of the source.

Columns and labels:
[1] = test system: MV4:11 human cancer cell lines; experiment: Anti-proliferative activity, CellTiter-Glo viability assay, 7 day protocol; type: cell-based; settings: Homo sapiens, MV4-11, 168 h, MV4:11 cells, 7 day incubation, read-out: GI50 on cellular proliferation of MV4:11 human cancer cell lines
How it was run: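 Luminescent CellTiter-Glo readout after 7-day compound exposure of MV4:11 cells plated at 3600 cells/ml (final DMSO 0.1%). GI50 derived from three biological × three technical replicates, reported as mean ± S.E.M.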

WDR5 = WDR5 (Homo sapiens (Human), UniProt P61964); experiment: TR-FRET binding assay (displacement of 10mer-Thr-FAM probe from WDR5)
[2] = read-out: Ki for Inhibition of WDR5 by TR-FRET assay, TR-FRET, 10mer-Thr-FAM probe, WDR5-His tag 2 nM, pH 7.0
[3] = read-out: Ki for Inhibition of WDR5 by TR-FRET assay

SMILES | GI50 [1] [nM] | Ki (WDR5; [2]) [nM] | Ki (WDR5; [3]) [nM] | Ki (WDR5) [nM]
CCn1cc(-c2cc(Cn3ccn(C4CC4)c3=N)cc(C(=O)N[C@H](c3ccc(Cl)c(Cl)c3)C3CC3)c2)c(C(F)(F)F)n1 [Example 162, (S)—N-(Cyclopropyl(3,4-dichlorophenyl)methyl)-3-((3-cyclopropyl-2-imino-2,3-dihydro-1H-imidazol-1-yl)methyl)-5-(1-ethyl-3-(trifluoromethyl)-1H-pyrazol-4-yl)benzamide] | 130 | < 0.1 |  | 
Cc1cc([C@@H](NC(=O)c2cc(Cn3ccn(C4CC4)c3=N)cc(-c3ccc(F)cc3Cl)c2)C2CC2)ccc1F [Example 141, (S)-2′-Chloro-N-(cyclopropyl(4-fluoro-3-methylphenyl)methyl)-5-((3-cyclopropyl-2-imino-2,3-dihydro-1H-imidazol-1-yl)methyl)-4′-fluoro-[1,1′-biphenyl]-3-carboxamide] | < 100 | < 0.1 |  | 
C=C(c1cc(Cn2ccn(C)c2=N)cc(C(=O)N[C@H](c2ccc(F)c(C)c2)C2CC2)c1)C(F)(F)F [Example 192, (S)—N-(cyclopropyl(4-fluoro-3-methylphenyl)methyl)-3-((2-imino-3-methyl-2,3-dihydro-1H-imidazol-1-yl)methyl)-5-(3,3,3-trifluoroprop-1-en-2-yl)benzamide] | 500 | < 0.1 |  | 
Cc1cc([C@@H](NC(=O)c2cc(Cn3ccn(C)c3=N)cc(-c3ccc(F)cc3C(F)(F)F)n2)C2CC2)ccc1F [Example 107, (S)—N-(Cyclopropyl(4-fluoro-3-methylphenyl)methyl)-6-(4-fluoro-2-(trifluoromethyl)phenyl)-4-((2-imino-3-methyl-2,3-dihydro-1H-imidazol-1-yl)methyl)picolinamide] | 950 | 0.23 |  | 
Cc1cc(CNC(=O)c2cc(Cn3ccn(C)c3=N)cc(-c3c(C)ccc4[nH]ncc34)c2)ccc1Cl [Example 33, N-(4-Chloro-3-methylbenzyl)-3-((2-imino-3-methyl-2,3-dihydro-1H-imidazol-1-yl)methyl)-5-(5-methyl-1H-indazol-4-yl)benzamide] | 4900 | 0.99 |  | 
Cc1cc([C@@H](NC(=O)c2cc(Cn3ccn(C)c3=N)cc(-c3cccnc3C(F)(F)F)n2)C2CC2)ccc1F [Example 119, (S)—N-(Cyclopropyl(4-fluoro-3-methylphenyl)methyl)-4-((2-imino-3-methyl-2,3-dihydro-1H-imidazol-1-yl)methyl)-2′-(trifluoromethyl)-[2,3′-bipyridine]-6-carboxamide] | 7600 | 0.16 |  | 
Cc1cc(CNC(=O)c2cc(Cn3ccn(C)c3=N)cc(-c3ccc(F)cc3C)n2)ccc1Cl [Example 56, N-(4-Chloro-3-methylbenzyl)-6-(4-fluoro-2-methylphenyl)-4-((2-imino-3-methyl-2,3-dihydro-1H-imidazol-1-yl)methyl)picolinamide] | 450 | 1.2 |  | 
Cn1cc(-c2cc(CN3CCSC3=N)cc(C(=O)N[C@H](c3ccc(Cl)c(Cl)c3)C3CC3)c2)c(C(F)(F)F)n1 [Example 310, (S)—N-(Cyclopropyl(3,4-dichlorophenyl)methyl)-3-((2-iminothiazolidin-3-yl)methyl)-5-(1-methyl-3-(trifluoromethyl)-1H-pyrazol-4-yl)benzamide] | 170 |  | < 0.1 | 
COc1cc(CN(C)C(=O)c2cc(Cn3ccn(C)c3=N)cc(-c3c(C)ccc4[nH]ncc34)c2)cc(OC)c1 [Example 34, N-(3,5-Dimethoxybenzyl)-3-((2-imino-3-methyl-2,3-dihydro-1H-imidazol-1-yl)methyl)-N-methyl-5-(5-methyl-1H-indazol-4-yl)benzamide] | 30000 | 16 |  | 
Cc1cc([C@@H](NC(=O)c2cc(CN3CCCC3=N)cc(-c3cn(C(C)C)nc3C(F)(F)F)c2)C2CC2)ccc1F [Example 336, (S)—N-(Cyclopropyl(4-fluoro-3-methylphenyl)methyl)-3-((2-iminopyrrolidin-1 yl)methyl)-5-(1-isopropyl-3-(trifluoromethyl)-1H-pyrazol-4-yl)benzamide] | < 100 | < 0.1 |  | 
COc1cc(CNC(=O)c2cc(Cn3ccn(C4CC4)c3=N)cc(-c3ccc(F)cc3C)c2)cc(OC)c1 [Example 117, 5-((3-Cyclopropyl-2-imino-2,3-dihydro-1H-imidazol-1-yl)methyl)-N-(3,5-dimethoxybenzyl)-4′-fluoro-2′-methyl-[1,1′-biphenyl]-3-carboxamide] | 310 | 0.15 |  | 
COc1cc(OC)cc([C@@H](NC(=O)c2cc(Cn3ccoc3=N)cc(-c3ccc(F)cc3Cl)c2)C2CC2)c1 (stereo in doubt) [Example 249, 2′-Chloro-N-(cyclopropyl(3,5-dimethoxyphenyl)methyl)-4′-fluoro-5-((2-iminooxazol-3(2H)-yl)methyl)-[1,1′-biphenyl]-3-carboxamide] | 370 | < 0.1 |  | 
Cc1cc([C@@H](NC(=O)c2cc(Cn3ccn(C)c3=N)cc(-c3cccnc3OC(F)F)c2)C2CC2)ccc1F [Example 127, (S)—N-(Cyclopropyl(4-fluoro-3-methylphenyl)methyl)-3-(2-(difluoromethoxy)pyridin-3-yl)-5-((2-imino-3-methyl-2,3-dihydro-1H-imidazol-1-yl)methyl)benzamide] | 730 | 0.21 |  | 
COc1cc(CNC(=O)c2cc(Cn3ccn(C)c3=N)cc(-c3c(C)cc(F)cc3F)c2)cc(OC)c1 [Example 52, N-(3,5-dimethoxybenzyl)-2′,4′-difluoro-5-((2-imino-3-methyl-2,3-dihydro-1H-imidazol-1-yl)methyl)-6′-methyl-[1,1′-biphenyl]-3-carboxamide] | 510 | 0.19 |  | 
COc1ccnc(CNC(=O)c2ccc(F)c(Cn3ccn(C)c3=N)c2)c1 [Example 366, 4-Fluoro-3-((2-imino-3-methyl-2,3-dihydro-1H-imidazol-1-yl)methyl)-N-((4-methoxypyridin-2-yl)methyl)benzamide] | 30000 | 13 |  | 
COc1cc(CNC(=O)c2cc(Cn3ccn(C)c3=N)cc(-c3ccc(F)cc3C(F)(F)F)c2)cc(OC)c1 [Example 98, N-(3,5-Dimethoxybenzyl)-4′-fluoro-5-((2-imino-3-methyl-2,3-dihydro-1H-imidazol-1-yl)methyl)-2′-(trifluoromethyl)-[1,1′-biphenyl]-3-carboxamide] | 160 | 0.06 |  | 
Cc1cc([C@@H](NC(=O)c2cc(Cn3ccn(C)c3=N)cc(N3CCOC[C@H]3C)c2)C2CC2)ccc1F [Example 227, N—((S)-cyclopropyl(4-fluoro-3-methylphenyl)methyl)-3-((2-imino-3-methyl-2,3-dihydro-1H-imidazol-1-yl)methyl)-5-((R)-3-methylmorpholino)benzamide] | 940 |  | 2.1 | 
Cc1cc(CNC(=O)c2cc(Cn3ccn(C)c3=N)cc(-c3cccnc3C)c2)ncn1 [Example 38, 3-((2-Imino-3-methyl-2,3-dihydro-1H-imidazol-1-yl)methyl)-5-(2-methylpyridin-3-yl)-N-((6-methylpyrimidin-4-yl)methyl)benzamide] | 6000 | 3.7 |  | 
N=C1SCCN1Cc1cc(C(=O)N[C@H](c2ccc(Cl)c(Cl)c2)C2CC2)cc(-c2ccc(F)cc2OC(F)F)c1 [Example 309, (S)—N-(Cyclopropyl(3,4-dichlorophenyl)methyl)-2′-(difluoromethoxy)-4′-fluoro-5-((2-iminothiazolidin-3-yl)methyl)-[1,1′-biphenyl]-3-carboxamide] | 960 |  | 0.77 | 
CC(C)n1cc(-c2cc(CN3CCN(C)C3=N)cc(C(=O)N[C@H](c3ccc(F)c(F)c3)C3CC3)c2)c(C(F)(F)F)n1 [Example 216, (S)—N-(Cyclopropyl(3,4-difluorophenyl)methyl)-3-((2-imino-3-methylimidazolidin-1-yl)methyl)-5-(1-isopropyl-3-(trifluoromethyl)-1H-pyrazol-4-yl)benzamide] | < 100 | < 0.1 |  | 
Cc1cc([C@@H](NC(=O)c2cc(Cn3ccoc3=N)cc(-c3cn(C)nc3C(F)(F)F)c2)C2CC2)ccc1F [Example 259, (S)—N-(Cyclopropyl(4-fluoro-3-methylphenyl)methyl)-3-((2-iminooxazol-3(2H)-yl)methyl)-5-(1-methyl-3-(trifluoromethyl)-1H-pyrazol-4-yl)benzamide] | < 100 |  | < 0.1 | 
CCn1cc(-c2cc(Cn3ccn(C)c3=N)cc(C(=O)N[C@H](c3ccc(F)c(F)c3)C3CC3)c2)c(C(F)(F)F)n1 [Example 191] | 80 | < 0.1 |  | 
CCn1cc(-c2cc(CN3CCN(C)C3=N)cc(C(=O)N[C@H](c3ccc(F)c(Cl)c3)C3CC3)c2)c(C(F)(F)F)n1 [Example 214, (S)—N-((3-Chloro-4-fluorophenyl)(cyclopropyl)methyl)-3-(1-ethyl-3-(trifluoromethyl)-1H pyrazol-4-yl)-5-((2-imino-3-methylimidazolidin-1-yl)methyl)benzamide] | < 100 |  |  | < 0.1
COc1cc(CNC(=O)c2cc(Cn3ccn(C)c3=N)cc(-c3c(C)cc(F)cc3C)c2)cc(OC)c1 [Example 65, N-(3,5-dimethoxybenzyl)-4′-fluoro-5-((2-imino-3-methyl-2,3-dihydro-1H-imidazol-1-yl)methyl)-2′,6′-dimethyl-[1,1′-biphenyl]-3-carboxamide] | 300 | 0.63 |  | 
Cc1cc([C@@H](NC(=O)c2cc(CN3CCOC3=N)cc(-c3ccc(F)cc3C(F)F)c2)C2CC2)ccc1F [Example 272, (S)—N-(Cyclopropyl(4-fluoro-3-methylphenyl)methyl)-2′-(difluoromethyl)-4′-fluoro-5-((2-iminooxazolidin-3-yl)methyl)-[1,1′-biphenyl]-3-carboxamide] | 100 | < 0.1 |  | 
